Measurements: patent publication US11504358B2, “Extended release methazolamide formulation” (Effcon Laboratories, Inc., priority 2017, dated 2022)

Key:
[1] = in water, alcohol and acetone; cited from earlier work
[2] = Methazolamide particle size testing, laser particle size analyzer; type: physicochemical; conditions: particles milled in-house
Protocol: The following conventions apply when describing particle size distribution. D(v, 0.1) means that 10% of the particles are smaller than this diameter. D(v, 0.5) is the median particle diameter. D(v, 0.9) means that 90% of the particles are smaller than this diameter.
Methazolamide particle size testing was performed on unmilled methazolamide particles and methazolamide particles milled in-house and by a third party vendor according to the above milling procedure. Methazolamide particle size testing was conducted using a Mastersizer laser particle size analyzer from Malvern Instruments or a sonic shifter. The results of the particle size testing for methazolamide particles milled in-house, as measured by a laser particle size analyzer, are as follows: […]

[3] = Density of methazolamide particles; type: physicochemical
[4] = Methazolamide particle size testing, sonic shifter (sieves); type: physicochemical
Protocol: Methazolamide particle size testing was performed on unmilled methazolamide particles and methazolamide particles milled in-house and by a third party vendor according to the above milling procedure. Methazolamide particle size testing was conducted using a Mastersizer laser particle size analyzer from Malvern Instruments or a sonic shifter. The results of the particle size testing for methazolamide particles milled in-house, as measured by a laser particle size analyzer, are as follows:
The results of the particle size testing for unmilled methazolamide particles, methazolamide particles milled in-house, and methazolamide particles milled by a third party vendor, as measured by a sonic shifter, are as follows: […]

| D(v, 0.1) [2] [μm] | D(v, 0.5) [2] [μm] | D(v, 0.9) [2] [μm] | Bulk Density [3] [g/mL] | Trapped Density [3] [g/mL] | % Retained, Fines Collector [4] [%] | % Retained, Sieve # 20 (840 μm) [4] [%] | % Retained, Sieve # 40 (420 μm) [4] [%] | % Retained, Sieve # 80 (177 μm) [4] [%] | % Retained, Sieve # 100 (149 μm) [4] [%] | % Retained, Sieve # 140 (105 μm) [4] [%] | % Retained, Sieve # 200 (74 μm) [4] [%] | Compound | Solubility [1] |
| --- | --- | --- | --- | --- | --- | --- | --- | --- | --- | --- | --- | --- | --- |
| – | – | – | – | – | – | – | – | – | – | – | – | CC(=O)N=c1sc(S(N)(=O)=O)nn1C [Methazolamide, N-[5-(aminosulfonyl)-3-methyl-1,3,4-thiadiazol-2(3H)-ylidene]acetamide] | slightly soluble |
| 42.15 | 121.45 | 255.75 | – | – | – | – | – | – | – | – | – | CC(=O)/N=c1/sc(S(N)(=O)=O)nn1C [Sample 1] | – |
| 48.42 | 128.46 | 267.26 | – | – | – | – | – | – | – | – | – | CC(=O)/N=c1/sc(S(N)(=O)=O)nn1C [Sample 3] | – |
| – | – | – | 0.56 | 0.99 | 16.51 | 1.23 | 1.52 | 15.27 | 19.54 | 32.92 | 13.00 | CC(=O)/N=c1/sc(S(N)(=O)=O)nn1C [Milled API (in-house)] | – |
| – | – | – | 0.53 | 1.00 | 15.56 | 5.15 | 6.14 | 21.88 | 17.14 | 21.90 | 12.29 | CC(=O)/N=c1/sc(S(N)(=O)=O)nn1C [Milled API (3rd party)] | – |
| – | – | – | 0.92 | 1.03 | 0.83 | 0.09 | 7.95 | 75.05 | 8.04 | 6.01 | 2.03 | CC(=O)/N=c1/sc(S(N)(=O)=O)nn1C [Unmilled API] | – |
| 47.67 | 132.34 | 269.30 | – | – | – | – | – | – | – | – | – | CC(=O)/N=c1/sc(S(N)(=O)=O)nn1C [Sample 2] | – |
